For two compounds, Kcat and Km results are on record in patent US5310675A, “Procaryotic carbonyl hydrolases” (priority 1991, dated 1994).

Holding throughout (experiment): Kinetic parameters from progress curves, p-nitroanilide substrates
Assay type in all cases: biochemical
Common to all, as to conditions: 25° C., 0.1M tris buffer, pH 8.6

In assay [1] the target is T1, B. amyloliquefaciens subtilisin variant asp+166 (D166; glycine+166 to asp) (Bacillus amyloliquefaciens, UniProt P00782, G273D).
T1 construct: codons for the mature subtilisin corresponding to that secreted by the B. amyloliquefaciens; made in house; host or cells: B. subtilis BG2036
The protocol:
(§1) B. subtilis strain BG2036 obtained by the method of Example 11 was transformed by the plasmids of Examples 14, 15 or 20 and by pS4-5 as a control. Transformants were plated or cultured in shaker flasks for 16 to 48 h at 37° C. in LB media plus 12.5 μg/ml chloramphenicol. Mutant enzymatically active subtilisin was recovered by dialyzing cell broth against 0.01M sodium phosphate buffer, pH 6.2. The dialyzed broth was then titrated to pH 6.2 with 1N HCl and loaded on a 2.5×2 cm column of CM Cellulose (CM-52 Whatman). After washing with 0.01M sodium phosphate, pH 6.2, the subtilisins (except mutants at position +222) were eluted with the same buffer made 0.08N in NaCl. The mutant subtilisins at position +222 were each eluted with 0.1M sodium phosphate, pH 7.0. The purified mutant and wild type enzymes were then used in studies of oxidation stability, Km, Kcat, Kcat/Km ratio, pH optimum, and changes in substrate specificity.
(§2) Various mutants for glycine+166 were screened for modified Kcat, Km and Kcat/Km ratios. Kinetic parameters were obtained by analysis of the progress curves of the reactions. The rate of reaction was measured as a function of substrate concentration. Data was analyzed by fitting to the Michaelis-Menton equation using the non-linear regression algorithm of Marquardt (Marquardt, D. W. 1963, "J. Soc. Ind. Appl. Math." 11, 431-41).

Assay [2] deals with T2, B. amyloliquefaciens subtilisin variant glu+166 (E166; glycine+166 to glu) (Bacillus amyloliquefaciens, UniProt P00782, G273E).
T2 construct: codons for the mature subtilisin corresponding to that secreted by the B. amyloliquefaciens; made in house; host or cells: B. subtilis BG2036
The protocol:
as §1, §2

For assay [3], the target named is T3, B. amyloliquefaciens subtilisin, wild type (gly-166) (Bacillus amyloliquefaciens, UniProt P00782).
T3 construct: codons for the mature subtilisin corresponding to that secreted by the B. amyloliquefaciens; made in house; host or cells: B. subtilis BG2036 (transformed with pS4-5)
The procedure:
as §1, §2

Assay [4] deals with T4, B. amyloliquefaciens subtilisin variant asn+166 (glycine+166 to asn) (Bacillus amyloliquefaciens, UniProt P00782, G273N).
T4 construct: codons for the mature subtilisin corresponding to that secreted by the B. amyloliquefaciens; made in house; host or cells: B. subtilis BG2036
The protocol:
as §1, §2

In assay [5] the target is T5, B. amyloliquefaciens subtilisin variant phe+166 (glycine+166 to phe) (Bacillus amyloliquefaciens, UniProt P00782, G273F).
T5 construct: codons for the mature subtilisin corresponding to that secreted by the B. amyloliquefaciens; made in house; host or cells: B. subtilis BG2036
The protocol:
as §1, §2

Assay [6] concerns the target T6, B. amyloliquefaciens subtilisin variant hys+166 (glycine+166 to his) (Bacillus amyloliquefaciens, UniProt P00782, G273H).
T6 construct: codons for the mature subtilisin corresponding to that secreted by the B. amyloliquefaciens; made in house; host or cells: B. subtilis BG2036
The protocol: as §1, §2

Assay [7] has as its target T7, B. amyloliquefaciens subtilisin variant ala+166 (A166; glycine+166 to ala) (Bacillus amyloliquefaciens, UniProt P00782, G273A).
T7 construct: codons for the mature subtilisin corresponding to that secreted by the B. amyloliquefaciens; made in house; host or cells: B. subtilis BG2036
The procedure:
as §1, §2

Assay [8] deals with T8, B. amyloliquefaciens subtilisin variant arg+166 (glycine+166 to arg) (Bacillus amyloliquefaciens, UniProt P00782, G273R).
T8 construct: codons for the mature subtilisin corresponding to that secreted by the B. amyloliquefaciens; made in house; host or cells: B. subtilis BG2036
The procedure: as §1, §2

In assay [9] the target is T9, B. amyloliquefaciens subtilisin variant lys+166 (glycine+166 to lys) (Bacillus amyloliquefaciens, UniProt P00782, G273K).
T9 construct: codons for the mature subtilisin corresponding to that secreted by the B. amyloliquefaciens; made in house; host or cells: B. subtilis BG2036
The protocol: as §1, §2

*1 amine or outer side, *2 acyl side, *3 side chain or, on linkers, in order; H or OH if unused. Where a SMILES comes first, the peptide text is derived from it. The star is where a group is joined. pNA = O=[N+]([O-])c1ccc(N*)cc1; Suc = O=C(CCC(=O)[*:2])[*:1]; Bz = O=C(c1ccccc1)*

T1 sequence (P00782 108-382 G273D): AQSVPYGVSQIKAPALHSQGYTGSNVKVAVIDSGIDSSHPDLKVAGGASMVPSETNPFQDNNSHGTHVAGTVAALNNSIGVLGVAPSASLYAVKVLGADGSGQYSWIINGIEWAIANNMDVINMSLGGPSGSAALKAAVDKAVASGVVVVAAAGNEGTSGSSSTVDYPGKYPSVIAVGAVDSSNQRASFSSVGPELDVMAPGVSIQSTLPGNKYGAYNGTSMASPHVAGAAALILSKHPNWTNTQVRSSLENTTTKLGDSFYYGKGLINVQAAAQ
T2 sequence (P00782 108-382 G273E): as the sequence (P00782 108-382 G273D) above, with D166E counted along it
T4 sequence (P00782 108-382 G273N): as the sequence (P00782 108-382 G273D) above, with D166N counted along it
T3 sequence (P00782 108-382): as the sequence (P00782 108-382 G273D) above, with D166G counted along it
T5 sequence (P00782 108-382 G273F): as the sequence (P00782 108-382 G273D) above, with D166F counted along it
T6 sequence (P00782 108-382 G273H): as the sequence (P00782 108-382 G273D) above, with D166H counted along it
T9 sequence (P00782 108-382 G273K): as the sequence (P00782 108-382 G273D) above, with D166K counted along it
T8 sequence (P00782 108-382 G273R): as the sequence (P00782 108-382 G273D) above, with D166R counted along it
T7 sequence (P00782 108-382 G273A): as the sequence (P00782 108-382 G273D) above, with D166A counted along it

The Km is the concentration of substrate that gives half-maximal velocity. Turning to `CC(C)[C@H](NC(=O)c1ccccc1)C(=O)NCC(=O)N[C@@H](CCCNC(=N)N)C(=O)Nc1ccc([N+](=O)[O-])cc1` [BVGRpN, benzoyl-L-Valyl-Glycyl-L-Arginyl-p-nitroanilide] (Bz-Val-Gly-Arg-pNA), the Kcat in [1] and in assay [2] was 2 s⁻¹ each time. Moreover, the Km in assay [1] turned out to be 41 µM; in assay [2], 27 µM; in assay [3], 1100 µM; in assay [4] it was 120 µM.

In assay [5], `C[C@H](NC(=O)CCC(=O)O)C(=O)N[C@@H](C)C(=O)N1CCC[C@H]1C(=O)N[C@@H](Cc1ccccc1)C(=O)Nc1ccc([N+](=O)[O-])cc1` [sAAPFpN, succinyl-L-Alanyl-L-Alanyl-L-Prolyl-L-Phenylalanyl-p-nitro-anilide] (Suc-AAPF-pNA) came in with a Kcat of 3 s⁻¹. Further, the Km worked out at 14 µM in assay [5]; 580 µM in assay [1]; 110 µM in assay [6]; 27 µM in assay [7]; 62 µM in assay [8]; 34 µM in assay [9]. Moreover, the Km in assay [2] was found to be 340 µM; in assay [3], 140 µM; in assay [4], 140 µM.
